Legend:
TAS2R39 [1] = target: T1, TAS2R39 (Homo sapiens, UniProt P59534); test: Calcium mobilization in HEK293 cells expressing TAS2R39 and Gα16-gust44; antagonism of […] TAF (also of […] denatonium, IC50 […]); format: cell-based
T1 sequence (P59534 1-338): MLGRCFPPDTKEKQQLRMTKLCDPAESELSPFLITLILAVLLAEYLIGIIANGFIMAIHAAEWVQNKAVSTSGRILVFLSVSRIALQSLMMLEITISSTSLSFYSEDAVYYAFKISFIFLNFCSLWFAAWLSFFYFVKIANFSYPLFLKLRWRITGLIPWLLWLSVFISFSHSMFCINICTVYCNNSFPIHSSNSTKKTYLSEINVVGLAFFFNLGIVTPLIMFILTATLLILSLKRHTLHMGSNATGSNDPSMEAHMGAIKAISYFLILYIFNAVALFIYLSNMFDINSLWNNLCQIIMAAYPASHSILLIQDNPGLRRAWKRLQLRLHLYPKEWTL

TAS2R39 [2] = target: T1, TAS2R39
TAS2R8 = TAS2R8 (Homo sapiens, UniProt Q9NYW2)
Sequence of TAS2R8 (Q9NYW2 whole entry): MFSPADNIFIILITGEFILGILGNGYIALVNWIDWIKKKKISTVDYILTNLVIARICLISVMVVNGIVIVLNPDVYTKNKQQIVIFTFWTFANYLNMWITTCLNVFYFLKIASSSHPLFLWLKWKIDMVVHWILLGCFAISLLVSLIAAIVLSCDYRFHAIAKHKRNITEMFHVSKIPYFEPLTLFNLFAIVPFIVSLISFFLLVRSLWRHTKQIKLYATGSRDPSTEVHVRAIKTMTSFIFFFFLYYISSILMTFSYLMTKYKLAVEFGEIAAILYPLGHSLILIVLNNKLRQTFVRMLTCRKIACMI

TAS2R14 = TAS2R14 (Homo sapiens, UniProt Q9NYV8)
Sequence of TAS2R14 (Q9NYV8 whole entry): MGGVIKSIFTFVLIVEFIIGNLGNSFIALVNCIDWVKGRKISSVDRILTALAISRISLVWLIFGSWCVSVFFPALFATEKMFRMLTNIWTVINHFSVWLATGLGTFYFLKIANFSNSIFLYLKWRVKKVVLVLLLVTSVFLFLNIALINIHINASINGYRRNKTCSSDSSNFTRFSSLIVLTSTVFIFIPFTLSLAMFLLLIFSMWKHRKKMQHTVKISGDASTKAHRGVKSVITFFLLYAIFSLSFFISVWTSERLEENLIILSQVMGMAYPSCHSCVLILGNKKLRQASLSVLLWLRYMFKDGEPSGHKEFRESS

SMILES | IC50 (TAS2R39 [1]) | Calcium mobilization in HEK293 cells expressing TAS2R39 and Gα16-gust44; concent (TAS2R39 [2]) | Calcium mobilization in HEK293 cells expressing TAS2R8 and Gα16-gust44; concentr (TAS2R8) | Calcium mobilization in HEK293 cells expressing TAS2R14 and Gα16-gust44; concent (TAS2R14)
Cc1ccc2oc(-c3ccccc3)cc(=O)c2c1 [6-MF, 6-methylflavone] | 22 µM |  |  | 
CC(C)OC(=O)[C@H](C)N[P@](=O)(CO[C@H](C)Cn1cnc2c(N)ncnc21)Oc1ccccc1 [TAF, tenofovir alafenamide] |  | TAF activates TAS2R1, TAS2R8, TAS2R14, and TAS2R39 concentration-dependently. | cells expressing TAS2R8 and TAS2R14 showed small but significant responses to TAF | cells expressing TAS2R8 and TAS2R14 showed small but significant responses to TAF

From PMC12164691 (Molecular Pharmacology, 2021)
